Measured values reported in patent US20250296934A1, “AZEPINOINDOLES AND METHODS OF PREPARATION THEREOF” (priority 2022, published 2025).
Read-outs that look alike come from different tables or passages of the source.

Assays:
[1] = test system: hepatocyte; experiment: In vitro hepatocyte clearance, human; type: in vitro ADME; conditions: Human
Protocol: (§1) Additional experimentation was performed on compounds 1, W5, and A93. Table 6a, 6b and 6c summarize, among other things, the anticipated hepatic clearance of compounds 1, W5 and A93 respectively, in various species, as specified in Table 6a, 6b and 6c and as determined by calculating the in vitro hepatocyte clearance over time and scaling such rate with such species' hepatocyte count and the anticipated liver blood flow rate in such species.

[2] = In vitro hepatocyte clearance, human; type: in vitro ADME; conditions: Human hepatocytes
Protocol: as §1

[3] = biological target: 5-HT1D (Homo sapiens, UniProt P28221); experiment: 5-HT receptor activity (Table 3), 5-HT1D; type: cell-based
[4] = biological target: 5-HT2A (Homo sapiens, UniProt P28223); experiment: 5-HT receptor activity (Table 3), 5-HT2A; type: cell-based
[5] = test system: SafetyScreen44™ panel hits; experiment: Follow up functional assays of SafetyScreen44 hits; design: species or system human
Protocol: Various compounds disclosed herein were subjected to an in vitro SafetyScreen44™ panel for identifying off-target activity. Compounds of interest that are identified in the panel are then tested in follow up functional assays to identify if such compounds have a significant off-target risk. […] It is predicted that other compounds share similar characteristics with compound 1 and also lack of the off-target activity.

[6] = biological target: T1, 5-HT1A (Homo sapiens, UniProt P08908); experiment: 5-HT receptor activity (Table 3), 5-HT1A; type: cell-based
T1 sequence (P08908 1-422): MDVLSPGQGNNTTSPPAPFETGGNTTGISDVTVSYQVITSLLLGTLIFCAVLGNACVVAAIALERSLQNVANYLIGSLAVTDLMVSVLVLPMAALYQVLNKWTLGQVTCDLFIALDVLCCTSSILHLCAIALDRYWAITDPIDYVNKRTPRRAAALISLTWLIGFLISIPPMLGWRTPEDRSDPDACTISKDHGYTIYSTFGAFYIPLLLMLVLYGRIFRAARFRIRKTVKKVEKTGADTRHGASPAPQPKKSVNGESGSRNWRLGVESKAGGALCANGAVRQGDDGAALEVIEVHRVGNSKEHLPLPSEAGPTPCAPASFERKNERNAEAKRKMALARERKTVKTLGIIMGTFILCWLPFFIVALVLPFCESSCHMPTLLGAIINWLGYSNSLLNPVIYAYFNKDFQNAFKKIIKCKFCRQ

[7] = biological target: 5-HT2B (Homo sapiens, UniProt P41595); experiment: 5-HT2B Gq dissociation BRET functional assay; type: cell-based; design: expressed in transfected cells; host or cells: HEK293T
[8] = test system: hepatocyte; experiment: In vitro hepatocyte clearance, mouse; type: in vitro ADME; conditions: Mouse
Protocol: as §1

[9] = In vitro hepatocyte clearance, mouse; type: in vitro ADME; conditions: Mouse hepatocytes
Protocol: as §1

[10] = test system: hepatocyte; experiment: In vitro hepatocyte clearance, monkey; type: in vitro ADME; conditions: Monkey
Protocol: as §1

[11] = In vitro hepatocyte clearance, monkey; type: in vitro ADME; conditions: Monkey hepatocytes
Protocol: as §1

[12] = biological target: T2, 5-HT2C (Homo sapiens, UniProt P28335); experiment: cell-based; conditions: Table 3
T2 sequence (P28335 33-458): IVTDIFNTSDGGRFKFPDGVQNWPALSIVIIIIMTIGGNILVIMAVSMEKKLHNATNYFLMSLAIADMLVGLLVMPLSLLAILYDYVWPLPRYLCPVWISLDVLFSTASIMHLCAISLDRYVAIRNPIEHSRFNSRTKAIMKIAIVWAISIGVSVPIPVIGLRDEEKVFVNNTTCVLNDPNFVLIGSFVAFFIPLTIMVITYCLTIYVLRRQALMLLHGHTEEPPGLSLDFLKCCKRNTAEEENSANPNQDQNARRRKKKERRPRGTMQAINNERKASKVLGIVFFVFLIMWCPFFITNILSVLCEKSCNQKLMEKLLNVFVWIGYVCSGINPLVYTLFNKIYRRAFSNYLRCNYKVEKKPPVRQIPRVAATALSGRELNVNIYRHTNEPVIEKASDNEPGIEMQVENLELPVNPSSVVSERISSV

[13] = biological target: 5-HT5A (Homo sapiens, UniProt P47898); experiment: 5-HT receptor activity (Table 3), 5-HT5A; type: cell-based
[14] = Plasma PK in dog; type: in vivo
Excerpt: Tables 7a and 7b summarize, among other things, the observed plasma PK properties in animals, for Compound 1: […]

[15] = biological target: 5-HT4 (Homo sapiens, UniProt Q13639); experiment: 5-HT receptor activity (Table 3), 5-HT4; type: cell-based
[16] = test system: TA1535

5-HT1D, sequence (P28221 whole entry, species assumed): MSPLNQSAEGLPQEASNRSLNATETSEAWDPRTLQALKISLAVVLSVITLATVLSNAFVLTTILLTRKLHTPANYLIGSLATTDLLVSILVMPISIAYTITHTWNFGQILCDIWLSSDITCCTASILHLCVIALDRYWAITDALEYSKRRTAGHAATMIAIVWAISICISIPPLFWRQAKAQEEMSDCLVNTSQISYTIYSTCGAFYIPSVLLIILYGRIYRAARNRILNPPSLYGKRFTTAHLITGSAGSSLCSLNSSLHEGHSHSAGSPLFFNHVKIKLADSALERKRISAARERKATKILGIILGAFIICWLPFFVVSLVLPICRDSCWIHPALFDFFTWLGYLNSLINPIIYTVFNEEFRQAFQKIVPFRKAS
5-HT2B, sequence (P41595 whole entry): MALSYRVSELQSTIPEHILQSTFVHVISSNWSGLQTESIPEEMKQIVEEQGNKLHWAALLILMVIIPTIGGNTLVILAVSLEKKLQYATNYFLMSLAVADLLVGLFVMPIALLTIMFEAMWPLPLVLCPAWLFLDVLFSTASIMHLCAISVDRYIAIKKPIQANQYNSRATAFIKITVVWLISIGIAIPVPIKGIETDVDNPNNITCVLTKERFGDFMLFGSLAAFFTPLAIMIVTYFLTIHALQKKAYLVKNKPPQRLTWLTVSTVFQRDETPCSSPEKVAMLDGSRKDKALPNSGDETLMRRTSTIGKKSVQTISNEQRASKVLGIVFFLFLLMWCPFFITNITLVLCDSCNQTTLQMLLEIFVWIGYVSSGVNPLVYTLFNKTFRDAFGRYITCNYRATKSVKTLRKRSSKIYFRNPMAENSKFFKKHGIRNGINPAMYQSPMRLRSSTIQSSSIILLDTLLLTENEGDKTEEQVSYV
5-HT2A, sequence (P28223 whole entry): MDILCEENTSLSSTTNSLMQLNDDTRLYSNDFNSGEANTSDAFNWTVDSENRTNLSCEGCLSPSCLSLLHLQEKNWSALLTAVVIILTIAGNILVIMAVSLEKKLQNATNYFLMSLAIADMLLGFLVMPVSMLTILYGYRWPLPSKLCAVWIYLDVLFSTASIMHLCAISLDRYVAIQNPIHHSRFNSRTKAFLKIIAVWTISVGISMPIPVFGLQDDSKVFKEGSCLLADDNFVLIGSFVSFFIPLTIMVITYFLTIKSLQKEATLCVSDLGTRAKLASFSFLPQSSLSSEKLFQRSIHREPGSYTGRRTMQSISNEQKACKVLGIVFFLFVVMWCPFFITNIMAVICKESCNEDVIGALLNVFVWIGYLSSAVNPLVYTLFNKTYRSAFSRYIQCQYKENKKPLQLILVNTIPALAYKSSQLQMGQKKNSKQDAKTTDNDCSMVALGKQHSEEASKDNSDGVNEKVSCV
5-HT4, sequence (Q13639 whole entry, species assumed): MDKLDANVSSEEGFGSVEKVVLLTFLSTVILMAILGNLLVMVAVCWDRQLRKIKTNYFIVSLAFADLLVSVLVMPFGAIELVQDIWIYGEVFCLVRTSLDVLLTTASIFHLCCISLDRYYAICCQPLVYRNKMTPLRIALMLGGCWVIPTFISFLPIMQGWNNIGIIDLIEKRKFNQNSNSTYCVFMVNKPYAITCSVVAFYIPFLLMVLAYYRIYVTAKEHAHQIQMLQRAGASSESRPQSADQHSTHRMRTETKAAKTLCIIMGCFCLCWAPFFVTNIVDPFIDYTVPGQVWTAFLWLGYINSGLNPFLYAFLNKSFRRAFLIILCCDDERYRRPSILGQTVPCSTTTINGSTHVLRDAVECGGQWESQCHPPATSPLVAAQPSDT
5-HT5A, sequence (P47898 whole entry, species assumed): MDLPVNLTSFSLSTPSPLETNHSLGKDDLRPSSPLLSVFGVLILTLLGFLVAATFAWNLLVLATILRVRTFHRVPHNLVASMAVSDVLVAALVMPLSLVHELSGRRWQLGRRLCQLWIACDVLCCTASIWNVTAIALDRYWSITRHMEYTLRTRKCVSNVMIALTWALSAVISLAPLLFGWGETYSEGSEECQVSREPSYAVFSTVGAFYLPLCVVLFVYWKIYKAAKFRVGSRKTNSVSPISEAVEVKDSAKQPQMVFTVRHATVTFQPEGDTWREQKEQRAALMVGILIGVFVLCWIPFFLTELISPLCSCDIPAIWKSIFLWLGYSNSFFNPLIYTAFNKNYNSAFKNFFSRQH

**Q.** Which results are given for `Cc1ccc(O)c2c3c([nH]c12)CCNCC3` [Cpd #1 (Pharm-136), 7-Methyl-1,2,3,4,5,6-hexahydroazepino[4,5-b]indol-10-ol]?
**A.** Hepatic Extraction Ratio (E) [1]: <0.25; Predicted hepatic CL [1]: <5.17 mL/min/kg; hepatocyte CLint [2]: < 2.71 µL/min/1e6 cells; half-life ([2]; read-out: In vitro T1/2): > 8.53 h; CLint scaled ([2]; read-out: Scale-up Clint): < 6.89 mL/min/kg; EC50 [3]: 326 nM; Eff [3]: 72%; EC50 [4]: 0.5 nM; Eff ([4]; 5-HT2A, Table 3): 101%; Follow up studies [5]: No significant off-; Follow up studies ([5]; listed as compound 1): does not possess significant off-target activity; EC50 [6]: 4000 nM; Eff [6]: 73%; EC50 [7]: 3.5 nM; 5-HT2B BRET Eff ([7]; normalized to % 5-HT stimulation): 52%; Hepatic Extraction Ratio (E) [8]: 0.81; Predicted hepatic CL [8]: 73.10 mL/min/kg; hepatocyte CLint [9]: 33 µL/min/1e6 cells; half-life ([9]; read-out: In vitro T1/2): 0.703 h; CLint scaled ([9]; read-out: Scale-up Clint): 389 mL/min/kg; Hepatic Extraction Ratio (E) [10]: <0.18; Predicted hepatic CL [10]: <7.97 mL/min/kg; hepatocyte CLint [11]: < 2.71 µL/min/1e6 cells; half-life ([11]; read-out: In vitro T1/2): > 8.53 h; CLint scaled ([11]; read-out: Scale-up Clint): < 9.75 mL/min/kg; EC50 [12]: 0.5 nM; Eff [12]: 95%; EC50 [13]: Not active; AUC(0-t) ([14]; IV, 2 mg/kg): 1200 ng·h/mL; half-life ([14]; IV, 2 mg/kg): 2.84 h; clearance ([14]; IV, 2 mg/kg, read-out: Cltot (converted)): 24.6 mL/min/kg; Vd ([14]; IV, 2 mg/kg, read-out: Vss): 5.15 L/kg; AUC(0-t) ([14]; PO, 10 mg/kg): 5460 ng·h/mL; Vz_F ([14]; PO, 10 mg/kg): 7.648 L/kg; half-life ([14]; PO, 10 mg/kg): 3.21 h; EC50 [15]: Not active; Count (n. of wells) ([16]; TA1535 + S9, 1.0E−04M): 0 n. of wells; Significance ([16]; TA1535 + S9, 1.0E−04M): Negative; Count (n. of wells) ([16]; TA1535 + S9, 1.0E−05M): 0 n. of wells; Significance ([16]; TA1535 + S9, 1.0E−05M): Negative; Count (n. of wells) ([16]; TA1535 + S9, 5.0E−05M): 0 n. of wells; Significance ([16]; TA1535 + S9, 5.0E−05M): Negative; Count (n. of wells) ([16]; TA1535 + S9, 5.0E−06M): 0 n. of wells; Significance ([16]; TA1535 + S9, 5.0E−06M): Negative; Count (n. of wells) ([16]; TA1535 − S9, 1.0E−04M): 0 n. of wells; Significance ([16]; TA1535 − S9, 1.0E−04M): Negative; Count (n. of wells) ([16]; TA1535 − S9, 1.0E−05M): 0 n. of wells; Significance ([16]; TA1535 − S9, 1.0E−05M): Negative; Count (n. of wells) ([16]; TA1535 − S9, 5.0E−05M): 0 n. of wells; Significance ([16]; TA1535 − S9, 5.0E−05M): Negative; Count (n. of wells) ([16]; TA1535 − S9, 5.0E−06M): 0 n. of wells; Significance ([16]; TA1535 − S9, 5.0E−06M): Negative
